≈ marks a conversion by molar mass, not a printed value.
How the values were obtained:
[1] = tested on: PGE2-contraction in the isolated guinea pig ileum; assay: Inhibition of the PGE2-contraction in the isolated guinea pig ileum; conditions: Cavia porcellus, agonist PGE2 200 ng/ml; for IC50: 3 min pre-treatment, probit analysis, 37° C; for inhibition at 10 µg/mL: at 10 μg/ml
Experimental: (§1) It is surprising that the compounds of the formula I which are closely related to the natural prostaglandins with regard to their structure, as it has been mentioned above, have a strong anti-prostaglandin effect. If, for example, a solution of the compounds of the invention in water is added to the isolated guinea pig ileum or uterus and if for example prostaglandin E2 or F2 α is added to this solution, in concentrations which normally stimulate the isolated ileum or the isolated uterus to strong contractions, only a weaker or no spasmogenic effect of the prostaglandins E2 and F2 α can be detected - depending on the concentrations used.
As test animals were used brown guinea pigs, males and females having a weight of from about 300 to 400 g. The animals were killed by a blow into the neck, the terminal ileum was rapidly taken off and put into a Petri dish containing a pre-heated Tyrode's solution. The intestine was decomposed into four equal sections (2 to 3 cm). Then the individual sections were put into an organ liquor filled with a Tyrode's solution and bubbled through by oxygen and they were fixed. The bath temperature was 37° C. Composition of the Tyrode's solution: […], 0.2 g of KCl, 0.55 g of CaCl2, 0.2 g of Mg Cl2, 1.0 g of glucose, 1.0 g of NaHCO3 in 1000 ml of distilled water. The free end was connected with the writing lever by a thread. The charge of the thread was 1 g. After a 30 minutes' recovery time the test itself was initiated. The test consisted in a pre-treatment with the antagonist to be tested and in the administration of the agonist three minutes later. The resulting contraction was compared with the initial contraction achieved by the administration of the agonist only. This latter contraction was considered as being 100%, and the contraction determined by the compound of the invention acting as antagonist was expressed in percent with regard to this basic contraction. All substances were dissolved in absolute alcohol and further diluted to their final concentrations with phosphate buffer (pH 7.4). As agonists were used prostaglandin E2 (UPJOHN) in the isolated ileum, and PGF2 in the isolated uterus.
The average concentration was determined by means of the probit analysis. The straight line resulting from this method allowed to read the average inhibiting concentration (Table I).
Inhibition of the PGE2 - and PGF2α -contraction in the isolated guinea pig ileum or uterus

[2] = tested on: PGF2α-contraction in the isolated guinea pig uterus; assay: Inhibition of the PGF2α-contraction in the isolated guinea pig uterus; conditions: Cavia porcellus, agonist PGF2α 40 ng/ml, deJalon solution, probit analysis
Experimental: as §1
As test animals were used brown guinea pigs, males and females having a weight of from about 300 to 400 g. The animals were killed by a blow into the neck, the terminal ileum was rapidly taken off and put into a Petri dish containing a pre-heated Tyrode's solution. The intestine was decomposed into four equal sections (2 to 3 cm). […] This latter contraction was considered as being 100%, and the contraction determined by the compound of the invention acting as antagonist was expressed in percent with regard to this basic contraction. […]
The average concentration was determined by means of the probit analysis. The straight line resulting from this method allowed to read the average inhibiting concentration (Table I). […]

[3] = read-out: inhibition in percent for the corresponding dosis

IC50 [1] [µg/mL] | IC50 [2] [µg/mL] | SMILES | inhibition at 5 µg/mL ([1]; at 5 μg/ml, read-out: inhibition in percent for the corresponding dosis) [%] | inhibition at 10 µg/mL [1, 3] [%]
< 5 |  | CCCCCC(O)/C=C/C1CCC(O)C1(CCCCOCC(=O)O)C(=O)OCC (stereo not drawn) [Example 30, (5RS,3"SR)-1-(6'-Carboxy-5'-oxahexyl)-2-hydroxy-5-[3"-hydroxy-trans-1"-octentyl]-cyclopentane-carboxylic acid ethyl ester] | 80 | 
< 10 |  | CCCCCC(/C=C/C1CCC(=O)C1(Cc1ccccc1CCCC(=O)OCC)C(=O)OCC)OC1CCCCO1 (stereo not drawn) [Example 44, (5RS,3'"SR)-1-[2'-(3"-Ethoxycarbonylpropyl)-benzyl]-2-oxo-5-[3'"-(2""-tetrahydropyranyloxy)-trans-1'"-octenyl]-cyclopentane-carboxylic acid ethyl ester] |  | 40
~5 (≈ 9.32 µM) |  | CCCCCC(/C=C/C1CCC(=O)C1(CCCCCC(C)C(=O)OCC)C(=O)OCC)OC1CCCCO1 (stereo not drawn) [Example 13, (5RS,3"SR)-1-(6'-Ethoxycarbonylheptyl)-2-oxo-5-[3"-(2'"-tetrahydropyranyloxy)-trans-1"-octenyl]-cyclopentane-carboxylic acid ethyl ester] |  | 
< 10 |  | CCCCCC(/C=C/C1CCC(O)C1(CCCCC(C)CC(=O)O)C(=O)OCC)OC1CCCCO1 (stereo not drawn) [Example 11, (5RS,3"SR)-1-(6'-Carboxy-5'-methylhexyl)-2-hydroxy-5-[3"-(2'"-tetrahydropyranyloxy)-trans-1"-octenyl]-cyclopentane-carboxylic acid ethyl ester] |  | 80
~5 (≈ 12.1 µM) |  | CCCCCC(O)/C=C/C1CCC(O)C1(C/C=C\COCC(=O)O)C(=O)OCC (stereo not drawn) [Example 32, (5RS,3"SR)-1-(6'-Carboxy-5'-oxa-cis-2'-hexenyl)-2-hydroxy5-[3"-hydroxy-trans-1"-octenyl]-cyclopentane-carboxylic acid ethyl ester] |  | 
< 10 |  | CCCCCC(O)/C=C/C1CCC(O)C1(Cc1ccccc1CCCC(=O)O)C(=O)OCC (stereo not drawn) [Example 46, (5RS,3'"SR)-1-[2'-(3"-Carboxypropyl)-benzyl]-2-hydroxy-5-[3'"-hydroxy-trans-1'"-octenyl]-cyclopentane-carboxylic acid ethyl ester] |  | 80
~10 (≈ 18.4 µM) |  | CCCCCC(/C=C/C1CCC(O)C1(Cc1ccccc1CCCC(=O)O)C(=O)OCC)OC1CCCCO1 (stereo not drawn) [Example 45, (5RS,3'"SR)-1-[2'-(3"-Carboxypropyl)-benzyl]-2-hydroxy-5-[3'"-(2""-tetrahydropyranyloxy)-trans-1'"-octenyl]-cyclopentane-carboxylic acid ethyl ester] |  | 
< 10 |  | CCCCCC(O)/C=C/C1CCC(O)C1(C/C=C/COCC(=O)O)C(=O)OCC (stereo not drawn) [Example 37, (5RS,3"SR)-1-(6'-Carboxy-5'-oxa-trans-2'-hexenyl)-2-hydroxy-5-(3"-hydroxy-trans-1"-octenyl)-cyclopentanecarboxylic acid ethyl ester] |  | 65
< 10 |  | CCCCCC(/C=C/C1CCC(O)C1(CCCC(C)CCC(=O)O)C(=O)OCC)OC1CCCCO1 (stereo not drawn) [Example 8, (5RS,3"SR)-1-(6'-Carboxy-4'-methylhexyl)-2-hydroxy-5-[3"-(2'"-tetrahydropyranyloxy)-trans-1"-octenyl]-cyclopentane-carboxylic acid ethyl ester] |  | 80
1.2 (≈ 2.24 µM) |  | CCCCCC(/C=C/C1CCC(=O)C1(CCC(C)CCCC(=O)OCC)C(=O)OCC)OC1CCCCO1 (stereo not drawn) [Example 4, (5 RS, 3" SR)-1-(6'-Ethoxycarbonyl-3'-methylhexyl)-2-oxo-5-[3"-(2"'-tetrahydropyranyloxy)-trans-1"-octenyl]-cyclopentane-carboxylic acid ethyl ester] |  | 
2.3 (≈ 4.63 µM) |  | CCCCCC(/C=C/C1CCC(O)C1(C/C=C/COCC(=O)O)C(=O)OCC)OC1CCCCO1 (stereo not drawn) [Example 35, (5RS,3"SR)-1-(6'-Carboxy-5'-oxa-trans-2'-hexenyl)-2-hydroxy-5-[3"-(2'"-tetrahydropyranyloxy)-trans-1"-octenyl]cyclopntane-carboxylic acid ethyl ester] |  | 
 | 10 (≈ 19.6 µM) | CCCCCC(/C=C/C1CCC(O)C1(CCC(C)CCCC(=O)O)C(=O)OCC)OC1CCCCO1 (stereo not drawn) [Example 5, (5 RS, 3" SR)-1-(6'-Carboxy-3'-methylhexyl)-2-hydroxy-5-[3"-(2"'-tetrahydropyranyloxy)-trans-1"-octenyl]-cyclopentane-carboxylic acid ethyl ester] |  | 
 | 2 (≈ 4.85 µM) | CCCCCC(O)/C=C/C1CCC(O)C1(CCCCCCC(=O)O)C(=O)OCC (stereo not drawn) [Example 3, (5 RS, 3" SR)-1-(6'-carboxyhexyl)-2-hydroxy-5-(3"-hydroxy-trans-1"-octenyl)-cyclopentane-carboxylic acid ethyl ester] |  | 
> 10 |  | CCCCCC(/C=C/C1CCC(=O)C1(CCCCC(C)CC(=O)OCC)C(=O)OCC)OC1CCCCO1 (stereo not drawn) [Example 10, (5RS,3"SR)-1-(6'-Ethoxycarbonyl-5'-methylhexyl)-2-oxo-5-[3"-(2'"-tetrahydropyranyloxy)-trans-1"-octenyl]-cyclopentane-carboxylic acid ethyl ester] |  | 10
4.6 (≈ 10.4 µM) |  | CCCCCC(O)/C=C/C1CCC(O)C1(C/C=C/COCC(=O)OCC)C(=O)OCC (stereo not shown) [Example 36] |  | 
